Reference: patent publication US20040110287A1, “Multi-step method for the differentiation of insulin positive, glucose responsive cells” (ES Cell International Pte Ltd., priority 2002, published 2004)

Test system: islet-like structures
Experiment: Glucose-stimulated insulin release and insulin content of islet-like structures
Type: cell-based
Conditions: 3 mM or 20 mM glucose, factor added to culture
Description: After the complete differentiation protocol described in detail in Example 2, the islet-like structures were cultured in the presence of either 3 mM glucose or 20 mM glucose to assay for glucose-stimulated insulin release. Insulin release and total insulin content were measured using standard methods. Additionally, factors were added to the culture of islet-like structures.

Compound	responsiveness of islet-like structures to high glucose (insulin release)
NC(=O)c1cccnc1 [nicotinamide, reference compound]	increased the responsiveness
Indian hedgehog	increased the responsiveness
Sonic hedgehog	increased the responsiveness
Desert hedgehog	increased the responsiveness
exendin-4 [reference compound]	increased the responsiveness
leptin	increased the responsiveness
CC(C)(COP(=O)(O)OP(=O)(O)OC[C@H]1O[C@@H](n2cnc3c(N)ncnc32)[C@H](O)[C@@H]1OP(=O)(O)O)[C@@H](O)C(=O)NCCC(=O)NCCSC(=O)CC(=O)O [malonyl CoA, reference compound]	increased the responsiveness
